Test results reported in patent US20200030242A1, “ORAL DOSAGE FORM WITH DRYING AGENT FOR DELIVERY OF ACTIVE AGENT” (Entrega Inc., priority 2016, published 2020).

Test: Surgical Bioavailability Assay
Type: in vivo, porcine model
Settings: neat active agent powder placed via surgical incision, compared to a control oral dosage form
From the text: “Surgical Bioavailability Assay” as used herein refers to an assay used to determine bioavailability of an active agent using a surgical testing method. In the Surgical Bioavailability Assay, a porcine model is also used, in which the animals undergo open surgery such that oral dosage forms to be tested can be placed at regions of the intestine of interest, such as the jejunum and ileum. After administration of anesthesia, a ventral midline incision is made to gain access to the animal's abdominal cavity. The jejunum and ileum are exposed, and incisions are made to manually place the oral dosage forms being tested. After oral dosage form placement is complete, the intestinal incisions are closed, and the midline incision can also be temporarily closed. Also, access can be made for blood collection via the carotid artery or jugular vein. […] The percent bioavailability of the active agent provided with the oral dosage form is determined on the basis of the active agent levels detected in these blood samples.
Surgical Bioavailability Assay. […] The percent bioavailability of the active agent provided with the oral dosage form is determined on the basis of the active agent levels detected in these blood samples.

| Compound | bioavailability (FIG. 4) |
| --- | --- |
| C[C@@H](O)[C@@H]1NC(=O)[C@H](CCCCN)NC(=O)[C@@H](Cc2c[nH]c3ccccc23)NC(=O)[C@H](Cc2ccccc2)NC(=O)[C@@H](NC(=O)[C@H](N)Cc2ccccc2)CSSC[C@@H](C(=O)N[C@H](CO)[C@@H](C)O)NC1=O [octreotide] | good bioavailability |
| calcitonin | good bioavailability |
